Tests used:
[1] = target: T1, Na^+,K+ -ATPase (Canis lupus familiaris, UniProt P50997); assay: inhibition of the activity of the purified Na^+,K+ -ATPase measured as % of hydrolysis of ^32 P-ATP; type: biochemical
T1 construct: Na^+,K+ -ATPase receptor purified according to Jorghensen; from tissue
Text: (§1) To test the affinity for the receptor site of the Na^+,K+ -ATPase and the agonist or antagonist activity on the enzyme, the following tests were used:
b) inhibition of the activity of the purified Na^+,K+ -ATPase measured as % of hydrolysis of ^32 P-ATP in presence and in absence of the tested compound (Mall F. et al., Biochem. Pharmacol, 1984, 33, 47)

[2] = target: T1, Na^+,K+ -ATPase; assay: displacement of the specific ^3 H-ouabain binding from the Na^+,K+ -ATPase receptor
Text: as §1
a) displacement of the specific ^3 H-ouabain binding from the Na^+,K+ -ATPase receptor purified according to Jorghensen (Jorghensen P., BBA, 1974, 356, 36) and Erdmann (Erdmann E. et al., Arzneim. Forsh., 1984, 34, 1314);

[3] = tested on: spontaneous hypertensive rats (MHS); assay: effect of 5 week-treatment on the development of hypertension in rats (SBP and HR, tail cuff method); type: in vivo, rat; conditions: 20 mg/Kg/os daily in Methocel 0.5% w/v, 5 weeks, 7 rats; for SBP: controls 172 +/- 3.5; for HR: controls 380 +/- 9.0
Description: Systolic blood pressure (SBP) and heart rate (HR) were measured, by the tail cuff method, in young prehypertensive male rats (MHS or SHR) strains before the development of hypertension (4 weeks of age) for recording the basal values of SBP. Groups of 7 rats were formed and subdivided in control and treated groups. The compound, suspended in Methocel 0.5 % (w/v), was orally given daily for at least 5 weeks to the treated groups. The control group received only Methocel.
SBP and HR were measured weekly 6 and 24 hrs after treatment. After 5 weeks of treatment, when hypertension was fully developed in the control group (9 weeks of age), washout was started for at least one week, to verify whether the treatment mantained blood pressure low or reestablished the basal values. […] (Takeda K. et al., Japan J. Pharmacol, 1979, 29,171; Takeda K. et al. Japan J. Pharmacol., 1982, 32, 283; Richer C. et al. Eur. J. Pharmacol, 1978, 47,393).

[4] = tested on: Na^+,K+ -ATPase; conditions: Gelbart and Thomas 1978; Schonfeld and Repke 1988; Thomas et al. 1974; Boutagy et al. 1973; cited from earlier work
[5] = Gelbart and Thomas 1978; Schonfeld and Repke 1988; cited from earlier work
[6] = purified Na^+,K+ -ATPase, hydrolysis of ^32 P-ATP
[7] = purified Na^+,K+ -ATPase, hydrolysis of ^32 P-ATP, read-out: Inhibitory Activity log IC50 (converted)
[8] = purified Na^+,K+ -ATPase receptor, read-out: Binding ^3 H-Ouab. Displacement log IC50 (converted)

What does the source list for `CN1CCN=C1N/N=C/[C@H]1CC[C@]2(O)[C@@H]3CC[C@@H]4C[C@@H](O)CC[C@]4(C)[C@H]3CC[C@]12C` [Comp. I-ac, (E)-17β-(1-Methyl-2-imidazolin-2-yl)hydrazono-methyl-5β-androstane-3β,14β-diol]?
IC50 [1]: 12.6 µM; IC50 [2]: 1 µM

What does the source list for `C[C@]12CC[C@H](O)C[C@H]1CC[C@@H]1[C@@H]2CC[C@]2(C)[C@@H](/C=N/NC3=NCCN3)CC[C@]12O` [Comp. I-aa, (E)-17β-(2-Imidazolin-2-yl)hydrazonomethyl-5β-androstane-3β,14β-diol]?
SBP [3]: 149 +/- 3.7 mm Hg; HR [3]: 370 +/- 11.2 beats/min.; Inhibitory Activity log IC50 [1, 6]: 5.2; IC50 [2]: 0.2 µM

Which results are given for `CSC(=N)N/N=C/[C@H]1CC[C@]2(O)[C@@H]3CC[C@@H]4C[C@@H](O)CC[C@]4(C)[C@H]3CC[C@]12C` [Comp. I-ak, (E)-17β-(3-Methylisothiosemicarbazono)methyl-5β-androstane-3β,14-diol]?
IC50 [1]: 31.6 µM; IC50 [2]: 2 µM

Which results are given for `C[C@]12CC[C@H](O)C[C@H]1CC[C@@H]1[C@@H]2CC[C@]2(C)[C@@](O)(/C=N/NC3=NCCN3)CC[C@]12O` [Comp. I-bn, (E)-17β-(2-Imidazolin-2-yl)hydrazonomethyl-5β-androstane-3β,14β,17α-triol]?
IC50 [1]: 12.6 µM; IC50 [2]: 3.98 µM

For `C[C@]12CC[C@H](OCCN3CCCC3)C[C@H]1CC[C@@H]1[C@@H]2CC[C@]2(C)[C@@H](/C=N/NC3=NCCN3)CC[C@]12O` [Comp. I-aw, (E)-3β-(2-(1-Pyrrolidinyl)ethoxy)-17β-(2-imidazolin-2-yl)hydrazonomethyl-5β-androstane-14β-ol], which SBP [3] is on record?
The SBP was 151 +/- 5.2 mm Hg.

What about the HR [3] of the same compound?
The HR was 388 +/- 9.0 beats/min.

What about the IC50 [1, 7] of the same compound?
The IC50 was 0.398 µM.

And the IC50 [2, 8]?
Its IC50 is 0.1 µM.

Which “Inhibitory Activity log IC50” value [1, 6] does the source give for `C[C@]12CC[C@H](O)C[C@H]1CC[C@@H]1[C@@H]2CC[C@]2(C)[C@@H](/C=N/NC3=NCCCN3)CC[C@]12O` [Comp. I-ae, (E)-17β-(1,4,5,6-Tetrahydro-2-pyrimidinyl)hydrazonomethyl-5β-androstane-3β,14β-diol] here?
Its value is 5.3.

And the IC50 [2]?
The IC50 was 0.251 µM.

Which results are given for `C[C@]12CC[C@H](OCCCN)C[C@H]1CC[C@@H]1[C@@H]2CC[C@]2(C)[C@@H](/C=N/NC3=NCCN3)CC[C@]12O` [Comp. I-au, (E)-3β-(3-Aminopropoxy)-17β(2-imidazolin-2-yl)hydrazonomethyl-5β-androstane-14β-ol]?
IC50 [1]: 3.98 µM; IC50 [2]: 0.1 µM

Which results are given for `C[C@]12CC[C@H](O)C[C@H]1CC[C@@H]1[C@@H]2CC[C@]2(C)[C@@](O)(/C=N/NC(=N)N)CC[C@]12O` [Comp. I-bl, (E)-17β-Guanidinoiminomethyl-5β-androstane-3β,14β,17α-triol]?
IC50 [1, 7]: 39.8 µM; IC50 [2, 8]: 1.58 µM

Which results are given for `C[C@]12CC[C@H](OCCCN)C[C@H]1CC[C@@H]1[C@@H]2CC[C@]2(C)[C@@H](/C=N/NC(N)=O)CC[C@]12O` [Comp. I-aq, (E)-3β-(3-Aminopropoxy)-17β-semicarbazonomethyl-5β-androstane-14β-ol]?
IC50 [1, 7]: 39.8 µM; IC50 [2]: 1.26 µM

With `C[C@]12CC[C@H](O)C[C@H]1CC[C@@H]1[C@@H]2CC[C@]2(C)[C@@H](/C=N/N=C(\N)Nc3ccccc3)CC[C@]12O` [Comp. I-ah, (E)-17β-(3-Phenylguanidino)iminomethyl-5β-androstane-3β,14β-diol] as the compound, how does the IC50 [1] read?
The IC50 was 100 µM.

And the IC50 [2, 8]?
The IC50 was 6.31 µM.

Which SBP [3] does the source give for `C[C@]12CC[C@H](OCCN3CCCC3)C[C@H]1CC[C@@H]1[C@@H]2CC[C@]2(C)[C@@H](/C=N/NC(=N)N)CC[C@]12O` [Comp. I-an, (E)-3β-(2-(1-pyrrolidinyl)ethoxy)-17β-guanidinoiminomethyl-5β-androstane-14β-ol] here?
The SBP was 150 +/- 5.1 mm Hg.

What about the HR [3] of the same compound?
The HR was 384 +/- 7.9 beats/min.

And the IC50 [1, 7]?
Its IC50 is 0.501 µM.

And the IC50 [2, 8]?
The IC50 was 0.0398 µM.

Which results are given for `C[C@]12CC[C@H](O)C[C@H]1CC[C@@H]1[C@@H]2CC[C@]2(C)[C@@H](/C=N/NC(=N)NC(=N)N)CC[C@]12O` [Comp. I-af, (E)-17β-(3-Amidino)guanidinoiminomethyl-5β-androstane-3β,14β-diol]?
IC50 [1]: 7.94 µM; IC50 [2]: 0.2 µM

What does the source list for `C[C@]12CC[C@H](O)C[C@H]1CC[C@@H]1[C@@H]2CC[C@]2(C)C(=NNC(=N)N)CC[C@]12O` [17-guanidinoimino-5β-androstane-3β,14β-diol]?
inhibition of Na^+,K+ -ATPase [4]: weak inhibitors of Na^+,K+ -ATPase; positive inotropic activity [5]: weak positive inotropic agents

With `C[C@]12CC[C@H](OCCN3CCCC3)C[C@H]1CC[C@@H]1[C@@H]2CC[C@]2(C)[C@@H](/C=N/NC(N)=O)CC[C@]12O` [Comp. I-as, (E)-3β-(2-(1-Pyrrolidinyl)ethoxy)-17β-semicarbazonomethyl-5β-androstane-14β-ol] as the compound, how does the IC50 [1, 7] read?
The IC50 was 39.8 µM.

What about the IC50 [2] of the same compound?
Its IC50 is 1.58 µM.

For `C[C@]12CCC(=NNC(=N)N)C[C@H]1CC[C@@H]1[C@@H]2CC[C@]2(C)[C@@H](/C=N/NC(=N)N)CC[C@]12O` [Comp. I-bi, 3-[(ZE)-Guanidinoimino]-17β-[(E)-guanidinoiminomethyl]-5β-androstane-14β-ol], which IC50 [1] is on record?
Its IC50 is 5.01 µM.

And the IC50 [2]?
The IC50 was 0.126 µM.

With `C[C@]12CC[C@H](OCCCN)C[C@H]1CC[C@@H]1[C@@H]2CC[C@]2(C)[C@@H](/C=N/NC(=N)N)CC[C@]12O` [Comp. I-al, (E)-3β-(3-Aminopropoxy)-17β-guanidinoiminomethyl-5β-androstane-14β-ol] as the compound, how does the SBP [3] read?
The SBP was 153 +/- 6.3 mm Hg.

And the HR [3]?
The HR was 380 +/- 10.0 beats/min.

And the IC50 [1, 7]?
Its IC50 is 0.794 µM.

What about the IC50 [2] of the same compound?
Its IC50 is 0.0398 µM.

With `C[C@]12CC[C@H](O)C[C@H]1CC[C@@H]1[C@@H]2CC[C@]2(C)/C(=N/NC3=NCCN3)CC[C@]12O` [Comp. I-bo, (E)-17-(2-Imidazolin-2-yl)hydrazono-5β-androstane-3β,14β-diol] as the compound, how does the IC50 [1, 7] read?
The IC50 was 39.8 µM.

What about the IC50 [2, 8] of the same compound?
The IC50 was 2 µM.

Which IC50 [1] does the source give for `C/C(=N\N=C(N)N)[C@H]1CC[C@]2(O)[C@@H]3CC[C@@H]4C[C@@H](O)CC[C@]4(C)[C@H]3CC[C@]12C` [Comp. I-bk, (E)-20-Guanidinoimino-5β-pregnane-3β,14β-diol] here?
Its IC50 is 5.01 µM.

And the IC50 [2]?
Its IC50 is 0.251 µM.

Which “inhibition of Na^+,K+ -ATPase” value [4] does the source give for `C[C@]12CC[C@H](O)C[C@H]1CC[C@@H]1[C@@H]2CC[C@]2(C)C(C=NNC(=N)N)CC[C@]12O` (stereo partly drawn) [17-Guanidinoiminomethyl-5β-androstane-3β,14β-diol] here?
The value was “weak inhibitors of Na^+,K+ -ATPase”.

What about the positive inotropic activity [5] of the same compound?
Its positive inotropic activity is “weak positive inotropic agents”.

Which SBP [3] does the source give for `CN(C)CCNC(=N)N/N=C/[C@H]1CC[C@]2(O)[C@@H]3CC[C@@H]4C[C@@H](O)CC[C@]4(C)[C@H]3CC[C@]12C` [Comp. I-ag, (E)-17β-(3-(2-Dimethylaminoethyl)guanidinoimino)methyl-5β-androstane-3β,14β-diol] here?
Its SBP is 154 +/- 4.8 mm Hg.

And the HR [3]?
The HR was 390 +/- 5.9 beats/min.

And the IC50 [1]?
The IC50 was 25.1 µM.

And the IC50 [2, 8]?
The IC50 was 1 µM.

Source: patent publication US5538960A, “Hydrazono-5β, 14β-androstane derivatives active on the cardiovascular system, and pharmaceutical compositions containing same” (SIGMA-TAU Industrie Farmaceutiche Riunite S.p.A., priority 1992, dated 1996)
